Consider one substance from patent US8940310B2, “Methods of treatment using TLR7 and/or TLR9 inhibitors” (Dynavax Technologies Corporation, priority 2010, dated 2015).

This series concerns the target T1, TLR9 (Homo sapiens, UniProt Q9NR96).
T1 construct: the primary human PDCs were thus stimulated with HSV-1 (4 MOI) or influenza (2 MOI); endogenous in cells; host or cells: primary human plasmacytoid dendritic cells from blood donors
T1 sequence (Q9NR96 26-1032): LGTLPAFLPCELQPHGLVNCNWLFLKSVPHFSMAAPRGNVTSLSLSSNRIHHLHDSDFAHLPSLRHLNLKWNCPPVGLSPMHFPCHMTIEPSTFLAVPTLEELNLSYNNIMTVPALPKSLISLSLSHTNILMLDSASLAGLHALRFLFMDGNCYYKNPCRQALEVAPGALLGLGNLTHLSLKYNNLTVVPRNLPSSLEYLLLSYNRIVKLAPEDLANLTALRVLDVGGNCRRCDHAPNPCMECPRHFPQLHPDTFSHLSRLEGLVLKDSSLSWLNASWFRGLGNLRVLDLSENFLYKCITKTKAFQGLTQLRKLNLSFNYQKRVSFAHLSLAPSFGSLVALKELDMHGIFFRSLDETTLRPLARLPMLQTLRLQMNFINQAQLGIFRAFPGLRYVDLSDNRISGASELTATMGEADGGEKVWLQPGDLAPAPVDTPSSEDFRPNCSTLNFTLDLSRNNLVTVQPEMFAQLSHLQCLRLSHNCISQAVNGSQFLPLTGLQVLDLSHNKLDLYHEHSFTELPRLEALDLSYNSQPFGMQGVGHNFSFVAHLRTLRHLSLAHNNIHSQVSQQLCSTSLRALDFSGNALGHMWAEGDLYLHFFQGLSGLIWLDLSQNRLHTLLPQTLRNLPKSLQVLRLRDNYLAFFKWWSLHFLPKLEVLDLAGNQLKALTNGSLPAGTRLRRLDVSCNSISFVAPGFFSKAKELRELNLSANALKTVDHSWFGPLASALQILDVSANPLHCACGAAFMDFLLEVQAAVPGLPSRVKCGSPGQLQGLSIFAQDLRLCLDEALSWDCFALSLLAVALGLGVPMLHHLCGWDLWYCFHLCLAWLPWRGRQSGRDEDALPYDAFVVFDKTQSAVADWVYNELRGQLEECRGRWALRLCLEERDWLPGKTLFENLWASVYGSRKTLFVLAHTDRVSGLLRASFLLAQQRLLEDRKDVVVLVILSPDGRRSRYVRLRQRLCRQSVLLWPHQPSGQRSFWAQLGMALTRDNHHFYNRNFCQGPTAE
In words: Human PDC stimulated with HSV-1 (TLR9 ligand), IFN-α. The class given is cell-based. The conditions noted are these: TLR9L HSV. An excerpt:
Human PDCs infected with herpes simplex virus type 1 (HSV-1 KOS strain) respond by producing IFN-α and this response is dependent on TLR-9 signaling. Human PDCs infected with influenza virus (FLU H1N1 strain, A/PR/8/34 from a patient in Puerto Rico 1934; See ATCC catalog VR-95) also respond by producing IFN-α, however, this response is dependent on TLR-7 signaling and independent of TLR-9. The effect of IRPs on innate immune response cytokine production by infected cells was examined. In a dose-dependent manner, the primary human PDCs were thus stimulated with HSV-1 (4 MOI) or influenza (2 MOI), either alone or in the presence of the tested IRPs. At 24 hours, supernatants were collected and cytokine levels, IFN-alpha, were measured by immunoassay.
Human PDCs from 16-18 donors were purified and infected with influenza virus (strain PR/8) or HSV-1. HSV was used at 4 MOI, while the influenza virus was used at 2 MOI. The amount of IFN-α produced by the cells was measured and compared to the amount of virus used for infection.
To further investigate the effectiveness of IRPs on TLR7 and TLR9 activation, various IRPs or control samples were assayed for immunoregulatory activity on human PDCs as described in Example 8.

pIC50: −log10 of the molar value. [I] = hypoxanthine (inosine)

Substance “5′-TGC TCC TGG AGI GGT TGT-3′ (DNA TGCTCCTGGAGNGGTTGT; DNA, [I] at 12, backbone and methylation of C not given here) [SEQ ID NO:73]” showed a pIC50 of 7.60 and an IC90 of 99 nM.

A word on the pIC50: it is the IC50 on a negative log10 scale, so that one unit is a factor of ten. A higher pIC50 goes with a low IC50. One may read the IC90 as the point of the concentration-response curve where the effect stands at 90%.
